Where two headings read alike, the source gives them in different places.
Tested on: HBV DNA in HepG2.2.15 cells
Assay: HBV in vitro dot-blot hybridization test
Type: cell-based, Hepatitis B virus
Experimental: • 1. Purpose of the test: • The content of HBV DNA in HepG2.2.15 cells was detected by dot-blot hybridization test to evaluate an inhibitory action of the compound on HBV with an EC50 value as an indicator. • 2. Experimental materials: • 2.1 Cell lines: HepG2.2.15 Cells • HepG2.2.15 cell culture media (DMEM/F12, Invitrogen-11330057; 10% serum Invitrogen-10099141; 100 units/mL Penicillin and 10 μg/mL Streptomycin, Invitrogen-15140122; 1% non-essential amino acid, Invitrogen-11140076; 2 mM L-GLUTAMINE, Invitrogen-25030081; 300 µg/ml Geneticin, Invitrogen-10131027 • 2.2 Reagents: • Trypsin (I Invitrogen-25300062) • DPBS (Hyclone-SH30028.01B) • DMSO (Sigma-D2650-100ML) • 96-well cell-culture plate (Corning-3599) • CO2 incubator (HERA-CELL-240) • 20×SSC (Bio-serve Co. Ltd) • Tris-HCl (Aldirch-154563-1KG) • NaOH (Sinopharm 10019718) • NaCl (Sinopharm 10019308) • Hybridization solution (Major BioTech Co. Ltd, IMMUNE GOLD-HYB-500) • DIG Wash and Block Buffer set (Roche-11585762001) • Anti-digoxigenin-AP, Fab fragments from sheep (Roche-11093274910) • 2.3 Materials and Instruments: • Positively-Charged Nylon Membrane (GE-RPN2250B) • Transfer Membrane Instrument (Bio-Rad, 170-6545) • Hybridization Oven (HL-2000 Hybrilinker) • 3. Testing steps and Methods: • 3.1 HepG2.2.15 cells (4×10^4 cells/well) were planted into a 96-well plate, and at 37° C., 5% CO2 cultured overnight. • 3.2 On Day 2, the compounds were diluted in totally 6 concentrations with a dilution gradient of five times. The compounds at different concentrations were added into the culture wells in duplicate. The final concentration of DMSO in the culture media was 1%. 1 μM GLS4 was used as 100% inhibition control; 1% DMSO as 0% inhibition control. • 3.3 On Day 5, replacing with the fresh culture media containing the compound was performed. • 3.4 On Day 8 and Day 9, the culture media in the culture wells was removed, and the cells were harvested for dot-blot hybridization. • The lysate was added into a culture well, and at 37° C. incubating for half an hour to disintegrate cells; the supernatant was obtained by centrifugation and transferred into a new microplate; a denaturation solution was added, after sufficient mixing the denatured sample was transferred and imprinted onto a Nylon membrane, the nucleic acid was fixed onto the membrane by UV cross-linking. • Pre-hybridization: the membrane was incubated at 60° C. in a hybridization solution for 1 hour. • Hybridization: heating the denatured digoxin-labelled HBV DNA probe and incubating at 60° C. overnight. • Membrane Washing: performing high strigency washing twice, low strigency washing for 3 times. • Blocking: incubating the membrane at room temperature in a blocking solution for 30-60 minutes. • Hybridization: diluting the Antibody Solution with the blocking solution, in which the membrane was placed and incubated at room temperature for 30-60 minutes. • Developing: washing the membrane in a Detection Buffer for 5 minutes, followed by adding a developing solution, pressing and exposing. • The photos was saved in tiff format, and a gray value of the dot was quantified with quantity one software. • 3.5 Data Analysis: • 3.5.1 The inhibition percentage was calculated: % Inh.=[1−(sample dot gray value−1 μM GLS4 dot gray value 1)/(DMSO control dot gray value−1 μM GLS4 dot gray value 1)]×100. • 3.5.2 Calculating EC50: the concentration of the compound for 50% inhibition of HBV (EC50) was calculated by using GraphPad Prism Software. • 4.

[1] = Hepatitis B virus, HepG2.2.15, dot-blot hybridization assay, read-out: Concentration for 50% inhibition of HBV (EC50)value
[2] = Hepatitis B virus, HepG2.2.15, summary list of target compounds, Examples 1-165 (same as Table 2), read-out: BIOACTIVITY (inhibitory actions on HBV DNA, EC50)
[3] = summary list of target compounds, Examples 1-165 (same as Table 2), read-out: BIOACTIVITY (inhibitory actions on HBV DNA, EC50)

SMILES | EC50 [1] [nM] | EC50 [2] [nM] | EC50 [3] [nM] | EC50 (Hepatitis B virus, HepG2.2.15, read-out: BIOACTIVITY (inhibitory actions on HBV DNA, EC50), summary list of target compounds, Examples 1-165 (same as Table 2)) [nM] | EC50 (dot-blot hybridization assay, read-out: Concentration for 50% inhibition of HBV (EC50)value) [nM]
CCOC(=O)C1=C2C[C@H](NS(C)(=O)=O)CN2C(c2nccs2)=N[C@@H]1c1ccc(F)cc1Cl [Example 141] | 500 to 1000 | 500 to 1000 |  |  | 
COC(=O)C1=C2C[C@H](NC(C)=O)CN2C(c2nccs2)=N[C@H]1c1ccc(F)cc1Cl [Example 162] | 100 to 500 | 100 to 500 |  |  | 
CCOC(=O)C1=C2C[C@@H](NC(C)=O)CN2C(c2nccs2)=N[C@H]1c1ccc(F)cc1Br [Example 49] | 100 to 500 | 100 to 500 |  |  | 
CCOC(=O)C1=C2C[C@H](NC(=O)C(F)F)CN2C(c2nccs2)=N[C@H]1c1ccc(F)cc1Cl [Example 133] | 100 to 500 | 100 to 500 |  |  | 
CC(C)OC(=O)C1=C2C[C@H](NS(C)(=O)=O)CN2C(c2nccs2)=N[C@H]1c1ccc(F)cc1Cl [Example 152] | 100 to 500 | 100 to 500 |  |  | 
COC(=O)C1=C2C[C@H](NS(N)(=O)=O)CN2C(c2nccs2)=N[C@H]1c1ccc(F)cc1Cl [Example 159] | < 100 | < 100 |  |  | 
COC(=O)C1=C2C[C@H](NS(=O)(=O)CCO)CN2C(c2nccs2)=N[C@H]1c1ccc(F)cc1Cl [Example 161] | < 100 | < 100 |  |  | 
CCOC(=O)C1=C2CN(C(=O)OC)CCN2C(c2nccs2)=N[C@H]1c1ccc(F)cc1Br [Example 85] | 100 to 500 | 100 to 500 |  |  | 
CCOC(=O)C1=C2CCCCN2C(c2nccs2)=NC1c1ccc(F)cc1Cl (racemic) [Example 109] | 1000 to 5000 | 1000 to 5000 |  |  | 
CCOC(=O)C1=C2C[C@H](NS(=O)(=O)CC(=O)O)CN2C(c2nccs2)=N[C@H]1c1ccc(F)cc1Cl [Example 143] | 100 to 500 | 100 to 500 |  |  | 
CCOC(=O)C1=C2C[C@@H](C(N)=O)CN2C(c2nccs2)=NC1c1ccc(F)cc1Br (mixture of isomers) [Example 28] | 100 to 500 | 100 to 500 |  |  | 
CCOC(=O)C1=C2C[C@H](NS(=O)(=O)C3CC3)CN2C(c2nccs2)=N[C@H]1c1ccc(F)cc1Br [Example 62] | < 100 | < 100 |  |  | 
CCOC(=O)C1=C2C[C@@H](NS(=O)(=O)C(C)C)CN2C(c2nccs2)=N[C@H]1c1ccc(F)cc1Br [Example 116] | < 100 | < 100 |  |  | 
CCOC(=O)C1=C2C[C@@H](CC(=O)O)CN2C(c2nccs2)=N[C@H]1c1ccc(F)cc1Br [Example 13] | 100 to 500 | 100 to 500 |  |  | 
CCOC(=O)C1=C2C[C@@H](CO)CN2C(c2nccs2)=NC1c1ccc(F)cc1Br (mixture of isomers) [Example 9] |  |  | 100 to 500 |  | 
CCOC(=O)C1=C2C[C@H](NC(=O)OC(C)(C)C)CN2C(c2nccs2)=N[C@H]1c1ccc(F)cc1Br [Example 38] | < 100 | < 100 |  |  | 
CCOC(=O)C1=C2C[C@@H](CNC(C)=O)CN2C(c2nccs2)=N[C@H]1c1ccc(F)cc1Br [Example 119] | < 100 | < 100 |  |  | 
CCOC(=O)C1=C2CN(CC(=O)O)CCN2C(c2nccs2)=N[C@H]1c1ccc(F)cc1Br [Example 99] | 1000 to 5000 | 1000 to 5000 |  |  | 
CCOC(=O)C1=C2CN(S(=O)(=O)C3CC3)CCN2C(c2nccs2)=N[C@H]1c1ccc(F)cc1Br [Example 93] | 100 to 500 | 100 to 500 |  |  | 
CCOC(=O)C1=C2CC(NS(=O)(=O)C3CC3)CN2C(c2nccs2)=N[C@H]1c1ccc(F)cc1Br (stereo partly shown) [Example 61] | < 100 | < 100 |  |  | 
CCOC(=O)C1=C2CN(CC(N)=O)CCN2C(c2nccs2)=NC1c1ccc(F)cc1Br (racemic) [Example 95] | 100 to 500 | 100 to 500 |  |  | 
CCOC(=O)C1=C2CNS(=O)(=O)CN2C(c2nccs2)=N[C@H]1c1ccc(F)cc1Br [Example 135] | 500 to 1000 |  |  | 500 to 1000 | 

SMILES | EC50 [1] [nM] | EC50 [2] [nM] | EC50 [3] [nM] | EC50 (Hepatitis B virus, HepG2.2.15, read-out: BIOACTIVITY (inhibitory actions on HBV DNA, EC50), summary list of target compounds, Examples 1-165 (same as Table 2)) [nM] | EC50 (dot-blot hybridization assay, read-out: Concentration for 50% inhibition of HBV (EC50)value) [nM]
CCOC(=O)C1=C2CCCN2C(c2ncc(F)cc2F)=NC1c1ccc(F)cc1Cl (racemic) [Example 76] | 1000 to 5000 | 1000 to 5000 |  |  | 
CCOC(=O)C1=C2C[C@H](N(C)C)CN2C(c2nccs2)=N[C@H]1c1ccc(F)cc1Br [Example 36] | 500 to 1000 | 500 to 1000 |  |  | 
CCOC(=O)C1=C2CN(Cc3cc(C)on3)CCN2C(c2nccs2)=N[C@H]1c1ccc(F)cc1Br [Example 94] | 1000 to 5000 | 1000 to 5000 |  |  | 
CCOC(=O)C1=C2CCCN2C(c2nccs2)=NC1c1cc(Cl)sc1Cl (racemic) [Example 74] | 1000 to 5000 | 1000 to 5000 |  |  | 
CCNC(=S)N1CCN2C(c3nccs3)=N[C@@H](c3ccc(F)cc3Br)C(C(=O)OCC)=C2C1 [Example 103] | 100 to 500 | 100 to 500 |  |  | 
CCOC(=O)C1=C2C[C@H](N3CCCC3C(=O)OC)CN2C(c2nccs2)=N[C@H]1c1ccc(F)cc1Cl (stereo partly shown) [Example 131] | 1000 to 5000 | 1000 to 5000 |  |  | 
CCOC(=O)C1=C2C[C@H](C#N)CN2C(c2nccs2)=N[C@H]1c1ccc(F)cc1Cl [Example 24] | 500 to 1000 | 500 to 1000 |  |  | 
CCOC(=O)C1=C2CN(Cc3ccc(OC)cc3)CCN2C(c2nccs2)=NC1c1ccc(F)cc1Br (racemic) [Example 97] | 1000 to 5000 | 1000 to 5000 |  |  | 
CCOC(=O)C1=C2CC(NS(=O)(=O)NC)CN2C(c2nccs2)=N[C@H]1c1ccc(F)cc1Br (mixture of isomers) [Example 54] | < 100 | < 100 |  |  | 
CCOC(=O)C1=C2C[C@@H](C#N)CN2C(c2nccs2)=NC1c1ccc(F)cc1Br (mixture of isomers) [Example 27] |  |  | 100 to 500 |  | 100 to 500
CCOC(=O)C1=C2CNCCN2C(c2nccs2)=NC1c1ccc(F)cc1Br (racemic) [Example 83] | 1000 to 5000 | 1000 to 5000 |  |  | 
CCOC(=O)C1=C2CCCN2C(c2nccs2)=NC1c1ccc(F)cc1F (racemic) [Example 72] | 500 to 1000 | 500 to 1000 |  |  | 
CCOC(=O)C1=C2CCCN2C(c2nccs2)=NC1c1ccc(F)c(F)c1 (racemic) [Example 69] | 100 to 500 | 100 to 500 |  |  | 
COC(=O)C1=C2C[C@H](NS(C)(=O)=O)CN2C(c2nccs2)=N[C@H]1c1ccc(F)cc1Cl [Example 149] | < 100 | < 100 |  |  | 
COC(=O)N[C@H]1CC2=C(C(=O)OC)[C@H](c3ccc(F)cc3Cl)N=C(c3nccs3)N2C1 [Example 163] | < 100 | < 100 |  |  | 
CCOC(=O)C1=C2C[C@@H](CN3CCOCC3)CN2C(c2nccs2)=NC1c1ccc(F)cc1Br (mixture of isomers) [Example 17] | 1000 to 5000 | 1000 to 5000 |  |  | 
CCOC(=O)C1=C2C[C@@H](NS(=O)(=O)NC)CN2C(c2nccs2)=N[C@H]1c1ccc(F)cc1Br [Example 55] | < 100 | < 100 |  |  | 
CCOC(=O)C1=C2CN(C(=O)OCC)CCN2C(c2nccs2)=NC1c1ccc(F)cc1Br (stereo not shown) [Example 82] | 100 to 500 | 100 to 500 |  |  | 
CCOC(=O)C1=C2CN(S(C)(=O)=O)CCN2C(c2nccs2)=NC1c1ccc(F)cc1Br (racemic) [Example 87] | 500 to 1000 | 500 to 1000 |  |  | 
CCOC(=O)C1=C2C[C@@H](NC(=O)OC(C)(C)C)CN2C(c2nccs2)=N[C@H]1c1ccc(F)cc1Br [Example 39] | < 100 | < 100 |  |  | 
CCOC(=O)C1=C2C[C@H](NS(C)(=O)=O)CN2C(c2nccs2)=N[C@H]1c1ccc(Cl)cc1Cl [Example 151] | < 100 | < 100 |  |  | 

Source: patent US9938301B2, “Dihydropyrimido fused ring derivative as HBV inhibitor” (QILU PHARMACEUTICAL CO., LTD., priority 2014, dated 2018)
